Data taken from patent US20230357233A1, “HETEROARYL COMPOUNDS, PREPARATION METHODS AND USES THEREOF” (INVENTISBIO CO., LTD., priority 2020, published 2023).

Tests used:
Ba/F3_KRAS^G12D cells = Ba/F3_KRAS^G12D cells (Homo sapiens, UniProt P01116, G12D, cells depend on it); assay: Ba/F3 KRAS^G12D cell proliferation assay (cell-titer Glo); type: cell-based; conditions: cell growth inhibition, treated with the compounds for 3 days, read-out: BaF3_KRAS^G12D IC50
[1] = target: recombinant human KRAS^G12D protein (Homo sapiens, UniProt P01116, G12D); assay: Temperature-dependent Fluorescence (TdF) KRAS^G12D protein binding assay; conditions: 6 μM KRAS^G12D Protein, 10 μM compound, Sypro Orange; Kd calculated from fluorescent shift
Description: The TdF assay was conducted in the 96-well-based real-time fluorescence plate reader (ABI 7500 or Roche LightCycler 480). Fluorescent dye Sypro Orange (Sigma) was used to monitor the protein folding-unfolding transition. Protein-compound binding was gauged by the shift in the unfolding transition temperature (ΔTm) acquired with and without compound. […] The sample plate was heated from 30° C. to 95° C. with a thermal ramping rate of […], taking a fluorescence reading every 0.4° C. using a CY3 channel matching the excitation and emission wavelengths of Sypro Orange (λ ex 470 nm; λ em 570 nm). Binding affinity (Kd value) was calculated based on the degree of fluorescent shift of the protein with and without compound.

Chain of recombinant human KRAS^G12D protein (P01116 1-188 isoform P01116-2 G12D): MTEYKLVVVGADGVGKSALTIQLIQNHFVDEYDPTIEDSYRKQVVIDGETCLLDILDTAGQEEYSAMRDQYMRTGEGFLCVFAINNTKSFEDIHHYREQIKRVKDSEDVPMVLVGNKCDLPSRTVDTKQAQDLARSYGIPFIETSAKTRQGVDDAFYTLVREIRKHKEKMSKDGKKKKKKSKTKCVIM
Chain of Ba/F3_KRAS^G12D cells (P01116 whole entry G12D): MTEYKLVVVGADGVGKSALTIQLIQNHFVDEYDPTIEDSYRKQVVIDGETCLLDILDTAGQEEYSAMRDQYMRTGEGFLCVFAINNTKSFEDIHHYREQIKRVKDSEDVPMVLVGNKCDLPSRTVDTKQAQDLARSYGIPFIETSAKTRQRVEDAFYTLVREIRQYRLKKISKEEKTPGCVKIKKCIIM

| Structure (SMILES) | GI50 (Ba/F3_KRAS^G12D cells) | Kd [1] |
| --- | --- | --- |
| CN1CCC[C@H]1Cn1c(=O)nc(N2CCNCC2)c2cc(F)c(-c3cccc4cccc(Cl)c34)nc21 [Compound 38] | > 5 µM | > 5 µM |
| CN1CCC[C@H]1Cn1c(=O)nc(N2CC3CCC(C2)N3)c2cc(F)c(-c3cc(O)cc4ccccc34)nc21 [Compound 39] | > 5 µM | > 5 µM |
| CN1CCC[C@H]1Cn1c(=O)nc(N2CC3CCC(C2)N3)c2cnc(-c3cc(O)cc4ccccc34)c(F)c21 [Compound 40] | > 5 µM | > 5 µM |
| CN1CCC[C@H]1Cn1c(=O)nc(N2CC3CCC(C2)N3)c2cc(F)c(-c3cc(O)cc4cccc(Cl)c34)nc21 [Compound 41] | > 5 µM | > 5 µM |
| CCN1CCN(c2nc(OCC34CCCN3CCC4)nc3c(F)c(-c4cc(O)cc5cccc(Cl)c45)ncc23)CC1 [Compound 42] | 0.5 to 5 µM | > 5 µM |
| Oc1cc(-c2nc3cc(OC[C@@]45CCCN4C[C@H](F)C5)nc(N4CC5CCC(C4)N5)c3cc2Cl)c2c(Cl)cccc2c1 [Compound 43] | 0.5 to 5 µM | > 5 µM |
| CN1CCC[C@H]1Cn1c(=O)nc(N2CC3CCC(C2)N3)c2cnc(-c3cc(O)cc4cccc(Cl)c34)c(F)c21 [Compound 44] | > 5 µM | > 5 µM |
| CN1CCC[C@H]1Cn1c(=O)nc(N2C[C@H]3CC[C@@H](C2)N3)c2cc(F)c(-c3cccc4cccc(Cl)c34)nc21 [Compound 45] | > 5 µM | > 5 µM |
| Clc1cccc2cccc(-c3ncc4c(N5CC6CCC(C5)N6)nc(OCC56CCCN5CCC6)cc4n3)c12 [Compound 46] | 0.5 to 5 µM | > 5 µM |
| N#Cc1cccc2cc(O)cc(-c3ncc4c(N5CC6CCC(C5)N6)nc(OCC56CCCN5CCC6)nc4c3F)c12 [Compound 47] | > 5 µM | ≤ 0.5 µM |
| Clc1cccc2cccc(-c3ncc4c(N5CCNCC5)nc(OCC56CCCN5CCC6)cc4n3)c12 [Compound 48] | 0.5 to 5 µM | > 5 µM |
| CN(C)CCOc1cc2nc(-c3ccccc3F)c(F)cc2c(N2C3CCC2CNC3)n1 [Compound 49] | 0.5 to 5 µM | > 5 µM |
| CN(C)C1CN(c2nc(-c3cccc4cccc(Cl)c34)c(F)c3nc(N4CCNCC4)ccc23)C1 [Compound 50] | 0.5 to 5 µM | > 5 µM |
| Oc1cc(-c2ncc3c(N4CC5CCC(C4)N5)nc(OCC45CCCN4CCC5)cc3n2)c2c(Cl)cccc2c1 [Compound 51] | > 5 µM | > 5 µM |
| Clc1cccc2cccc(-c3ncc4c(N5C6CCC5CNC6)nc(OCC56CCCN5CCC6)cc4n3)c12 [Compound 52] | 0.5 to 5 µM | > 5 µM |
| CN1CCC[C@@H]1COc1nc(-c2cccc3cccc(Cl)c23)c(F)c2nc(N3CCNCC3)ccc12 [Compound 53] | < 0.5 µM | > 5 µM |
| CN1CCC[C@@H]1COc1nc(-c2cccc3ccccc23)c(F)c2nc(N3CCNCC3)ccc12 [Compound 54] | 0.5 to 5 µM | > 5 µM |
| Oc1cc(-c2ncc3c(C4CCNCC4)nc(OCC45CCCN4CCC5)nc3c2F)c2c(Cl)cccc2c1 [Compound 55] | > 5 µM | > 5 µM |
| CCN1CCC(c2nc(OCC34CCCN3CCC4)nc3c(F)c(-c4cc(O)cc5cccc(Cl)c45)ncc23)CC1 [Compound 56] | 0.5 to 5 µM | > 5 µM |
| Oc1cc(-c2nc(OCC34CCCN3CCC4)c3ccc(N4CCNCC4)nc3c2F)c2c(Cl)cccc2c1 [Compound 57] | > 5 µM | > 5 µM |
| Cc1cccc2cc(O)cc(-c3ncc4c(N5CC6CCC(C5)N6)nc(OC[C@@]56CCCN5C[C@H](F)C6)c(Cl)c4n3)c12 [Compound 58] | 0.5 to 5 µM | 0.5 to 5 µM |
| Oc1cc(-c2ncc3c(N4CC5CCC(C4)N5)nc(OCC45CCCN4CCC5)cc3n2)c2c(Cl)cccc2c1Cl [Compound 59] | > 5 µM | > 5 µM |
| N#Cc1cc2c(N3CC4CCC(C3)N4)nc(OC[C@@]34CCCN3C[C@H](F)C4)nc2nc1-c1cc(O)cc2ccccc12 [Compound 60] | > 5 µM | > 5 µM |
| CCc1cccc2cc(O)cc(-c3ncc4c(N5CC6CCC(C5)N6)nc(OC[C@@]56CCCN5C[C@H](F)C6)c(Cl)c4n3)c12 [Compound 61] | 0.5 to 5 µM | ≤ 0.5 µM |

| Structure (SMILES) | GI50 (Ba/F3_KRAS^G12D cells) | Kd [1] |
| --- | --- | --- |
| Oc1cc(-c2ncc3c(N4CC5CCC(C4)N5)nc(OC[C@@]45CCCN4C[C@H](F)C5)cc3n2)c2ccccc2c1 [Compound 62] | 0.5 to 5 µM | > 5 µM |
| Oc1cc(-c2ncc3c(N4CC5CCC(C4)N5)nc(OC[C@@]45CCCN4C[C@H](F)C5)c(Cl)c3n2)c2ccccc2c1 [Compound 63] | 0.5 to 5 µM | > 5 µM |
| CN1CCC[C@H]1Cn1c(=O)nc(N2CCN[C@@H](CC#N)C2)c2cnc(-c3cc(O)cc4cccc(Cl)c34)c(F)c21 [Compound 64] | > 5 µM | > 5 µM |
| Oc1cc(-c2ncc3c(N4CC5CCC(C4)N5)nc(OCC45CCCN4CCC5)c(Cl)c3n2)c2c(Cl)cccc2c1 [Compound 65] | > 5 µM | 0.5 to 5 µM |
| c1ccc2c(-c3ncc4c(N5CC6CCC(C5)N6)cc(OCC56CCCN5CCC6)nc4n3)cccc2c1 [Compound 66] | 0.5 to 5 µM | > 5 µM |
| Fc1c(-c2cccc3cccc(Cl)c23)ncc2c(N3CCNCC3)cc(OCC34CCCN3CCC4)nc12 [Compound 67] | 0.5 to 5 µM | > 5 µM |
| Nc1nc2c(-c3ncc4c(N5CC6CCC(C5)N6)nc(OC[C@@]56CCCN5C[C@H](F)C6)nc4c3F)ccc(F)c2s1 [Compound 68] | > 5 µM | ≤ 0.5 µM |
| Fc1c(-c2cccc3cccc(Cl)c23)ncc2c(OCC34CCCN3CCC4)cc(N3CCNCC3)nc12 [Compound 69] | 0.5 to 5 µM | > 5 µM |
| Oc1cc(-c2ncc3c(N4C5CCC4CNC5)nc(OC[C@@]45CCCN4C[C@H](F)C5)nc3c2F)c2c(Cl)cccc2c1 [Compound 70] | < 0.5 µM | ≤ 0.5 µM |
| Oc1cc(-c2ncc3c(N4CC5CCC(C4)N5)cc(OCC45CCCN4CCC5)nc3c2F)c2c(Cl)cccc2c1 [Compound 71] | > 5 µM | 0.5 to 5 µM |
| Oc1cc(-c2ncc3c(N4CCNCC4)nc(OC[C@@]45CCCN4C[C@H](F)C5)nc3c2F)c2c(Cl)cccc2c1 [Compound 72] | 0.5 to 5 µM | ≤ 0.5 µM |
| CN1CCC[C@H]1COc1nc(N2CCNCC2)c2cnc(-c3ccc(F)c4sc(N)nc34)c(F)c2n1 [Compound 73] | > 5 µM | ≤ 0.5 µM |
| CC(=O)N1CCN(c2nc(OC[C@@]34CCCN3C[C@H](F)C4)nc3c(F)c(-c4cc(O)cc5cccc(Cl)c45)ncc23)CC1 [Compound 74] | > 5 µM | ≤ 0.5 µM |
| Oc1cc(-c2ncc3c(N4CC5CCC(C4)N5)nc(OC[C@@]45CCCN4C[C@H](F)C5)c(Cl)c3n2)c2c(Cl)c(F)ccc2c1 [Compound 75] | > 5 µM | ≤ 0.5 µM |
| Fc1ccc2cccc(-c3ncc4c(N5CC6CCC(C5)N6)nc(OC[C@@]56CCCN5C[C@H](F)C6)nc4c3F)c2c1Cl [Compound 76] | < 0.5 µM | ≤ 0.5 µM |
| NC(=O)N1CCN(c2nc(OC[C@@]34CCCN3C[C@H](F)C4)nc3c(F)c(-c4cc(O)cc5cccc(Cl)c45)ncc23)CC1 [Compound 77] | > 5 µM | > 5 µM |
| Oc1cc(-c2ncc3c(N4CC5CCC(C4)N5)cc(OC[C@@]45CCCN4C[C@H](F)C5)nc3c2F)c2c(Cl)cccc2c1 [Compound 78] | 0.5 to 5 µM | ≤ 0.5 µM |
| O=C(C(O)O)N1CCN(c2nc(OC[C@@]34CCCN3C[C@H](F)C4)nc3c(F)c(-c4cc(O)cc5cccc(Cl)c45)ncc23)CC1 [Compound 79] | > 5 µM | > 5 µM |
| Oc1cc(-c2ncc3c(N4CC5CCC(C4)N5)cc(OC[C@@]45CCCN4C[C@H](F)C5)nc3c2F)c2ccccc2c1 [Compound 80] | 0.5 to 5 µM | 0.5 to 5 µM |
| Cc1nc(-c2cc(O)cc3ccccc23)c(F)c2nc(OC[C@@]34CCCN3C[C@H](F)C4)nc(N3CC4CCC(C3)N4)c12 [Compound 81] | < 0.5 µM | ≤ 0.5 µM |
| Clc1cccc2cccc(-c3cc4nc(N5CCNCC5)ccc4c(OCC45CCCN4CCC5)n3)c12 [Compound 82] | < 0.5 µM | > 5 µM |
| Clc1cccc2cccc(-c3nc(OCC45CCCN4CCC5)c4ccc(N5CCNCC5)nc4c3Br)c12 [Compound 83] | 0.5 to 5 µM | > 5 µM |
| Oc1cc(-c2cc3nc(OC[C@@]45CCCN4C[C@H](F)C5)nc(N4CC5CCC(C4)N5)c3nn2)c2ccccc2c1 [Compound 84] | 0.5 to 5 µM | 0.5 to 5 µM |
